Reference: patent US20240215582A1, “METHODS OF CONTROLLING PLANT PATHOGENS” (Valent BioSciences LLC, priority 2022, published 2024)
Like-named read-outs stand apart in the source and are kept apart here.

How the values were obtained:
Botrytis cinerea [1] = experiment: In vitro growth on cervinomycin-amended growth media; assay type: cell-based
Fusarium graminearum = assay type: cell-based
Phytophthora capsici = experiment: In vitro growth on cervinomycin-amended growth media; assay type: cell-based
Zymoseptoria tritici = experiment: as above; assay type: cell-based
Rhynchosporium secalis = experiment: as above; assay type: cell-based
Pythium ultimum = experiment: as above; assay type: cell-based
Cladosporium carpophilum = experiment: as above; assay type: cell-based
Cochliobolus miyabeanus = experiment: as above; assay type: cell-based
Magnaporthe oryzae = assay type: in vivo
Puccinia triticina = experiment: Host plant efficacy assay (wheat); assay type: in vivo
Phakopsora pachyrhizi = experiment: Host plant efficacy assay (soybean); assay type: in vivo
Phytophthora infestans = assay type: in vivo
[2] = system: Pseudoperonospora cubensis; experiment: Host plant efficacy assay (cucumber); assay type: in vivo
Sclerotinia sclerotiorum = experiment: Host plant efficacy assay (common bean); assay type: in vivo
Erysiphe diffusa = experiment: Host plant efficacy assay (soybean); assay type: in vivo
Alternaria solani = experiment: Host plant efficacy assay (tomato); assay type: in vivo
[3] = system: Pseudoperonospora cubensis; experiment: Field and greenhouse trials (cucumber, squash); assay type: in vivo; details: P. cubensis
[4] = system: Pseudoperonospora cubensis; experiment: Foliar application, inoculated plants, disease severity; details: for Disease severity P. cubensis Oct. 20, 2020: carrier control severity 70; for Disease severity P. cubensis Oct. 27, 2020: carrier control severity 79; for Disease severity P. cubensis Jul. 28, 2020: carrier control severity 67
Procedure: (§1) Biological efficacy assays utilizing cervinomycins were conducted on Pseudoperonospora cubensis and Botrytis cinerea. […] Once plants had dried they were inoculated with the pathogen, then were stored in a controlled climate chamber under high humidity for 4-6 days. At the end of the experiment disease severity was determined based on the percentage of plant tissue that was visually symptomatic.

Botrytis cinerea [5] = experiment: as above; details: for Disease severity B. cinerea: carrier control severity 63.3; for percent control B. cinerea: vs carrier control
Procedure: as §1

Plasmospora viticola = experiment: Efficacy on grape plants infected with Plasmospora viticola; details: for % control Plasmospora viticola 1DAI: 1 day after infection; for % control Plasmospora viticola 1DAI / % control Plasmospora viticola 7DBI / % control Plasmospora viticola 1DB1: grape plants; for % control Plasmospora viticola 7DBI: 7 days before infection; for % control Plasmospora viticola 1DB1: 1 day before infection
Source text: Treatments occurred at either 1 day before infection (“1 DBI”), 7 days before infection (“7 DBI”) or 1 day after infection (“1 DAI”).

[6] = 500 ppm A2, untreated severity 34
[7] = 1000 ppm A2, untreated severity 34
[8] = 1500 ppm A2, untreated severity 34
[9] = 1 ppm foliar, vs carrier control
[10] = 3 ppm foliar, vs carrier control
[11] = 6 ppm foliar, vs carrier control
[12] = 12 ppm foliar, vs carrier control
[13] = 25 ppm foliar, vs carrier control
[14] = 30 ppm foliar, vs carrier control
[15] = 50 ppm foliar, vs carrier control

`COc1cc2oc3c(c(=O)c2cc1OC)C(=O)c1c(ccc2cc4c(c(O)c12)C(=O)N1CCOC1(C)C4)C3=O` (stereo not drawn) [Cervinomycin A2, cervinomycin A2] was tested, and the “% Control Botrytis cinerea” value (Botrytis cinerea [1]; 0.004 ppm in growth media) was 3%, the “% Control Botrytis cinerea” value (Botrytis cinerea [1]; 0.016 ppm in growth media) was 2% and the “% Control Botrytis cinerea” value (Botrytis cinerea [1]; 0.063 ppm in growth media) was 70%. For the same compound, the “% Control Botrytis cinerea” value (Botrytis cinerea [1]; 0.25 ppm in growth media) was 100%, the “% Control Botrytis cinerea” value (Botrytis cinerea [1]; 1 ppm in growth media) was 100% and the “% Control Fusarium graminearum” value (Fusarium graminearum; 0.004 ppm in growth media) was 8%. For the same compound, the “% Control Fusarium graminearum” value (Fusarium graminearum; 0.016 ppm in growth media) was 4%, the “% Control Fusarium graminearum” value (Fusarium graminearum; 0.063 ppm in growth media) was 9% and the “% Control Fusarium graminearum” value (Fusarium graminearum; 0.25 ppm in growth media) was 0%. For the same compound, the “% Control Fusarium graminearum” value (Fusarium graminearum; 1 ppm in growth media) was 14%, the “% Control Phytophthora capsici” value (Phytophthora capsici; 0.004 ppm in growth media) was 4% and the “% Control Phytophthora capsici” value (Phytophthora capsici; 0.016 ppm in growth media) was 75%. The “% Control Phytophthora capsici” value (Phytophthora capsici; 0.063 ppm in growth media) was 90%, the “% Control Phytophthora capsici” value (Phytophthora capsici; 0.25 ppm in growth media) was 99% and the “% Control Phytophthora capsici” value (Phytophthora capsici; 1 ppm in growth media) was 100%. The “% Control Zymoseptoria tritici” value (Zymoseptoria tritici; 0.004 ppm in growth media) was 1%, the “% Control Zymoseptoria tritici” value (Zymoseptoria tritici; 0.016 ppm in growth media) was 2% and the “% Control Zymoseptoria tritici” value (Zymoseptoria tritici; 0.063 ppm in growth media) was 6%. The “% Control Zymoseptoria tritici” value (Zymoseptoria tritici; 0.25 ppm in growth media) was 62%, the “% Control Zymoseptoria tritici” value (Zymoseptoria tritici; 1 ppm in growth media) was 100% and the “% Control Rhynchosporium secalis” value (Rhynchosporium secalis; 0.004 ppm in growth media) was 21%. For the same compound, the “% Control Rhynchosporium secalis” value (Rhynchosporium secalis; 0.016 ppm in growth media) was 71%, the “% Control Rhynchosporium secalis” value (Rhynchosporium secalis; 0.063 ppm in growth media) was 98% and the “% Control Rhynchosporium secalis” value (Rhynchosporium secalis; 0.25 ppm in growth media) was 99%. The “% Control Rhynchosporium secalis” value (Rhynchosporium secalis; 1 ppm in growth media) was 100%, the “% Control Pythium ultimum” value (Pythium ultimum; 0.004 ppm in growth media) was 0% and the “% Control Pythium ultimum” value (Pythium ultimum; 0.016 ppm in growth media) was 13%. The “% Control Pythium ultimum” value (Pythium ultimum; 0.063 ppm in growth media) was 99%, the “% Control Pythium ultimum” value (Pythium ultimum; 0.25 ppm in growth media) was 96% and the “% Control Pythium ultimum” value (Pythium ultimum; 1 ppm in growth media) was 99%. The “% Control Cladosporium carpophilum” value (Cladosporium carpophilum; 0.004 ppm in growth media) was 0%, the “% Control Cladosporium carpophilum” value (Cladosporium carpophilum; 0.016 ppm in growth media) was 0% and the “% Control Cladosporium carpophilum” value (Cladosporium carpophilum; 0.063 ppm in growth media) was 46%. For the same compound, the “% Control Cladosporium carpophilum” value (Cladosporium carpophilum; 0.25 ppm in growth media) was 99%, the “% Control Cladosporium carpophilum” value (Cladosporium carpophilum; 1 ppm in growth media) was 99% and the “% Control Cochliobolus miyabeanus” value (Cochliobolus miyabeanus; 0.004 ppm in growth media) was 0%. For the same compound, the “% Control Cochliobolus miyabeanus” value (Cochliobolus miyabeanus; 0.016 ppm in growth media) was 20%, the “% Control Cochliobolus miyabeanus” value (Cochliobolus miyabeanus; 0.063 ppm in growth media) was 49% and the “% Control Cochliobolus miyabeanus” value (Cochliobolus miyabeanus; 0.25 ppm in growth media) was 73%. The “% Control Cochliobolus miyabeanus” value (Cochliobolus miyabeanus; 1 ppm in growth media) was 87%, the “% control Magnaporthe oryzae Rice 1DBI” value (Magnaporthe oryzae; 11.3 ppm) was 0 (0 (about 0%)) and the “% control Magnaporthe oryzae Rice 1DBI” value (Magnaporthe oryzae; 45 ppm) was 0 (0 (about 0%)). For the same compound, the “% control Magnaporthe oryzae Rice 1DBI” value (Magnaporthe oryzae; 180 ppm) was 0 (0 (about 0%)), the “% control Puccinia triticina Wheat 6DBI” value (Puccinia triticina; 11.3 ppm) was 0 (0 (about 0%)) and the “% control Puccinia triticina Wheat 6DBI” value (Puccinia triticina; 45 ppm) was 0 (0 (about 0%)). For the same compound, the “% control Puccinia triticina Wheat 6DBI” value (Puccinia triticina; 180 ppm) was 0 (0 (about 0%)), the “% control Phakopsora pachyrhizi Soybean 3DAI” value (Phakopsora pachyrhizi; 11.3 ppm) was 0 (0 (about 0%)) and the “% control Phakopsora pachyrhizi Soybean 4DBI” value (Phakopsora pachyrhizi; 11.3 ppm) was 0 (0 (about 0%)). For the same compound, the “% control Phakopsora pachyrhizi Soybean 3DAI” value (Phakopsora pachyrhizi; 45 ppm) was 0 (0 (about 0%)), the “% control Phakopsora pachyrhizi Soybean 4DBI” value (Phakopsora pachyrhizi; 45 ppm) was 0 (0 (about 0%)) and the “% control Phakopsora pachyrhizi Soybean 3DAI” value (Phakopsora pachyrhizi; 180 ppm) was 0 (0 (about 0%)). For the same compound, the “% control Phakopsora pachyrhizi Soybean 4DBI” value (Phakopsora pachyrhizi; 180 ppm) was 2 (2 (about 50%)), the “% control Phytophthora infestans Tomato 1DBI” value (Phytophthora infestans; 11.3 ppm) was 0 (0 (about 0%)) and the “% control Phytophthora infestans Tomato 1DBI” value (Phytophthora infestans; 45 ppm) was 0 (0 (about 0%)). The “% control Phytophthora infestans Tomato 1DBI” value (Phytophthora infestans; 180 ppm) was 3 (3 (about 70%)), the “% control Pseudoperonospora cubensis Cucumber 1DBI” value ([2]; 11.3 ppm) was 0 (0 (about 0%)) and the “% control Pseudoperonospora cubensis Cucumber 1DBI” value ([2]; 45 ppm) was 0 (0 (about 0%)). For the same compound, the “% control Pseudoperonospora cubensis Cucumber 1DBI” value ([2]; 180 ppm) was 3 (3 (about 70%)), the “% control Sclerotinia sclerotiorum Common bean 1DBI” value (Sclerotinia sclerotiorum; 11.3 ppm) was 0 (0 (about 0%)) and the “% control Sclerotinia sclerotiorum Common bean 1DBI” value (Sclerotinia sclerotiorum; 45 ppm) was 0 (0 (about 0%)). The “% control Sclerotinia sclerotiorum Common bean 1DBI” value (Sclerotinia sclerotiorum; 180 ppm) was 0 (0 (about 0%)), the “% control Erysiphe diffusa Soybean 2DAI” value (Erysiphe diffusa; 11.3 ppm) was 0 (0 (about 0%)) and the “% control Erysiphe diffusa Soybean 2DAI” value (Erysiphe diffusa; 45 ppm) was 0 (0 (about 0%)). For the same compound, the “% control Erysiphe diffusa Soybean 2DAI” value (Erysiphe diffusa; 180 ppm) was 0 (0 (about 0%)), the “% control Alternaria solani Tomato 1DBI” value (Alternaria solani; 11.3 ppm) was 0 (0 (about 0%)) and the “% control Alternaria solani Tomato 1DBI” value (Alternaria solani; 45 ppm) was 0 (0 (about 0%)). The “% control Alternaria solani Tomato 1DBI” value (Alternaria solani; 180 ppm) was 0 (0 (about 0%)), the “% Control” value [3, 6] was 27% and the “Disease Severity” value [3, 6] was 25%. The “% Control” value [3, 7] was 22%, the “Disease Severity” value [3, 7] was 26% and the “% Control” value [3, 8] was 44%. The “Disease Severity” value [3, 8] was 19%, the “Disease severity P. cubensis Oct. 20, 2020” value ([4]; 1 ppm foliar) was 52% and the “Disease severity P. cubensis Oct. 27, 2020” value ([4]; 1 ppm foliar) was 7%. The “percent control P. cubensis Oct. 20, 2020” value [4, 9] was “(26%)”, the “percent control P. cubensis Oct. 27, 2020” value [4, 9] was 91% and the “Disease severity P. cubensis Oct. 20, 2020” value ([4]; 3 ppm foliar) was 27%. For the same compound, the “Disease severity P. cubensis Oct. 27, 2020” value ([4]; 3 ppm foliar) was 7%, the “percent control P. cubensis Oct. 20, 2020” value [4, 10] was “(61%)” and the “percent control P. cubensis Oct. 27, 2020” value [4, 10] was 91%. The “Disease severity P. cubensis Oct. 20, 2020” value ([4]; 6 ppm foliar) was 16%, the “Disease severity P. cubensis Oct. 27, 2020” value ([4]; 6 ppm foliar) was 2% and the “percent control P. cubensis Oct. 20, 2020” value [4, 11] was “(77%)”. For the same compound, the “percent control P. cubensis Oct. 27, 2020” value [4, 11] was 98%, the “Disease severity P. cubensis Oct. 20, 2020” value ([4]; 12 ppm foliar) was 3% and the “Disease severity P. cubensis Oct. 27, 2020” value ([4]; 12 ppm foliar) was 1%. For the same compound, the “percent control P. cubensis Oct. 20, 2020” value [4, 12] was “(95%)”, the “percent control P. cubensis Oct. 27, 2020” value [4, 12] was 99% and the “Disease severity P. cubensis Jul. 28, 2020” value ([4]; 15 ppm foliar) was 28%. The “percent control P. cubensis Jul. 28, 2020” value ([4]; 15 ppm foliar, vs carrier control) was 58%, the “Disease severity P. cubensis Oct. 20, 2020” value ([4]; 25 ppm foliar) was 4% and the “Disease severity P. cubensis Oct. 27, 2020” value ([4]; 25 ppm foliar) was 1%. The “percent control P. cubensis Oct. 20, 2020” value [4, 13] was “(94%)”, the “percent control P. cubensis Oct. 27, 2020” value [4, 13] was 99% and the “Disease severity P. cubensis Jul. 28, 2020” value ([4]; 30 ppm foliar) was 10%. For the same compound, the “Disease severity P. cubensis Jul. 14, 2020” value ([4]; 30 ppm foliar, carrier control severity 98) was 73%, the “percent control P. cubensis Jul. 14, 2020” value [4, 14] was 26% and the “percent control P. cubensis Jul. 28, 2020” value [4, 14] was 85%. For the same compound, the “Disease severity P. cubensis Oct. 20, 2020” value ([4]; 50 ppm foliar) was 7%, the “Disease severity P. cubensis Oct. 27, 2020” value ([4]; 50 ppm foliar) was 2% and the “percent control P. cubensis Oct. 20, 2020” value [4, 15] was “(89%)”. For the same compound, the “percent control P. cubensis Oct. 27, 2020” value [4, 15] was 98%, the “Disease severity P. cubensis Jul. 28, 2020” value ([4]; 60 ppm foliar) was 18% and the “percent control P. cubensis Jul. 28, 2020” value ([4]; 60 ppm foliar, vs carrier control) was 73%. For the same compound, the “control of Pseudoperonospora cubensis (summary of Table 3)” value ([4]; foliar application) was “significant control”, the “Disease severity B. cinerea” value (Botrytis cinerea [5]; 1 ppm foliar) was 58% and the “percent control B. cinerea” value (Botrytis cinerea [5]; 1 ppm foliar) was “(9%)”. The “Disease severity B. cinerea” value (Botrytis cinerea [5]; 3 ppm foliar) was 45%, the “percent control B. cinerea” value (Botrytis cinerea [5]; 3 ppm foliar) was “(29%)” and the “Disease severity B. cinerea” value (Botrytis cinerea [5]; 6 ppm foliar) was 45%. For the same compound, the “percent control B. cinerea” value (Botrytis cinerea [5]; 6 ppm foliar) was “(29%)”, the “Disease severity B. cinerea” value (Botrytis cinerea [5]; 12 ppm foliar) was 30% and the “percent control B. cinerea” value (Botrytis cinerea [5]; 12 ppm foliar) was “(53%)”. The “Disease severity B. cinerea” value (Botrytis cinerea [5]; 25 ppm foliar) was 24%, the “percent control B. cinerea” value (Botrytis cinerea [5]; 25 ppm foliar) was “(63%)” and the “Disease severity B. cinerea” value (Botrytis cinerea [5]; 50 ppm foliar) was 9%. For the same compound, the “percent control B. cinerea” value (Botrytis cinerea [5]; 50 ppm foliar) was “(87%)”, the “control of Botrytis cinerea (summary of Table 3)” value (Botrytis cinerea [5]; foliar application) was “significant control” and the “control of P. viticiola (summary of Table 1)” value (Plasmospora viticola; 13-800 ppm) was “significant control”. For the same compound, the “% control Plasmospora viticola 1DAI” value (Plasmospora viticola; 13 ppm) was 0%, the “% control Plasmospora viticola 7DBI” value (Plasmospora viticola; 13 ppm) was 61% and the “% control Plasmospora viticola 1DB1” value (Plasmospora viticola; 50 ppm) was 100%. For the same compound, the “% control Plasmospora viticola 7DBI” value (Plasmospora viticola; 50 ppm) was 91%, the “% control Plasmospora viticola 1DAI” value (Plasmospora viticola; 200 ppm) was 0% and the “% control Plasmospora viticola 1DB1” value (Plasmospora viticola; 200 ppm) was 100%. For the same compound, the “% control Plasmospora viticola 1DAI” value (Plasmospora viticola; 800 ppm) was 5%, the “% control Plasmospora viticola 1DB1” value (Plasmospora viticola; 800 ppm) was 100% and the “% control Plasmospora viticola 7DBI” value (Plasmospora viticola; 800 ppm) was 100%.
